The target of this experiment is PHF (paired helical filaments) isolated from the brain of an Alzheimer's disease patient (Homo sapiens, UniProt P10636). Briefly: Competitive binding assay: displacement of primulin fluorescence from PHFs. The conditions noted are these: concentration that reduces the signal of 1 μM primulin to 50% of control, relative affinity; for IC50: read-out: P50. On the procedure: The DSB compounds were tested for their ability to bind to PHF in a competition-style assay.
If a test compound that also binds to PHFs with the same or greater affinity is added, it will displace the reference ligand and reduce the fluorescence signal. In the present assay, the reference compound is primulin, which was added at 1 μM. Test compounds were added at concentrations from 0.05 to 1 μM. The P50 for a test compound is defined as the concentration of compound that reduces the primulin signal to 50% of the control value. This value is, therefore, not an absolute affinity, but a relative affinity compared to the affinity of primulin.
PHFs were isolated from the brain of an Alzheimer's disease patient essentially as described by Wischik et al. (Neurobiology of Aging, Vol. 16, pp. 409-431, 1995). The IFII fraction was isolated by centrifugation on a sucrose gradient as described in the PhD thesis of C. M. Wischik, and was further extracted into an ‘abc sup’ as described by C. M. Wischik (Thesis “The structure and biochemistry of paired helical filaments in Alzheimer's disease” Part I and II; Cambridge University, 1989).
The assay for ligand activity was performed in 96 well plates (Nunc Cat. No. 236108). The test compound at the required concentration was mixed with PHFs, then primulin was added to give a final concentration of 1 μM and a total volume of 100 μl. The concentration of PHFs added was determined for each preparation to give an adequate fluorescence signal, and was typically in the range 1-2 μl/100 μl. The test compounds were typically dissolved in DMSO to give a final concentration of 10% DMSO in the assay. The control fluorescence, in the absence of PHFs, was also measured in the presence of 10% DMSO.
The fluorescence was measured in a Varian Carey Eclipse Fluorescence Spectrophotometer, with the […] wavelength at 480 nm. Excitation spectra were recorded and corrected by subtraction of the signal measured in the absence of PHFs, using the Varian software. The fluorescence signal at the peak […] wavelength of 420 nm was measured from the corrected spectra. The fluorescence values were plotted as a function of concentration of test compound, and the value for P50 measured from the graph.

Sequence of PHF (paired helical filaments) isolated from the brain of an Alzheimer's disease patient (P10636 623-708 limits assumed): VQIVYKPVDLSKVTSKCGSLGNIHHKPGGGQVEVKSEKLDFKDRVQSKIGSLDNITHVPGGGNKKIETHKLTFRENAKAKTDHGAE

In the case of `Cc1ccc2nc(-c3ccc(NC(=O)c4ccccc4N)cc3)sc2c1` [ABAA-04], the P50 result is “no effect”.
For `Cc1ccc2nc(-c3ccc(NC(=O)c4cccc(N)c4)cc3)sc2c1` [ABAA-05], the P50 result is recorded as “no effect”.
On to `Cc1ccc2nc(-c3ccc(NC(=O)c4ccc(N)cc4)cc3)sc2c1` [ABAA-06], for which the IC50 came to 0.52 µM.
In the case of `Cc1ccc2nc(-c3ccc(NC(=O)c4ccccc4N(C)C)cc3)sc2c1` [ABAA-07], the P50 result is recorded as “no effect”.
Still for that read-out and setting: the result for `Cc1ccc2nc(-c3ccc(NC(=O)c4cccc(N(C)C)c4)cc3)sc2c1` [ABAA-08] reads “no effect”.
On to `Cc1ccc2nc(-c3ccc(NC(=O)c4ccccc4)cc3)sc2c1` [ABAA-10], for which the IC50 is roughly 1.2 µM.
Still for that read-out and setting: the result for `Cc1ccc2nc(-c3ccc(NC(=O)c4cccc(O)c4)cc3)sc2c1` [ABAA-11] reads roughly 1.2 µM.
For the compound `CNc1cccc(C(=O)Nc2ccc(-c3nc4ccc(C)cc4s3)cc2)c1` [ABAA-12], the P50 result is reported as “no effect”.
As to `CN(C)CCOc1ccc2nc(-c3ccc(NC(=O)c4ccc([N+](=O)[O-])c(C(F)(F)F)c4)cc3)sc2c1` [ABDMAA-01], the IC50 stood at 0.98 µM.
Take `CN(C)CCOc1ccc2nc(-c3ccc(NC(=O)c4ccc([N+](=O)[O-])c(C(F)(F)F)c4)cc3)sc2c1` [ABDMAA-02]: the IC50 was greater than 1 µM.
Still for that read-out and setting: the result for `O=C(Nc1ccc(-c2nc3ccc(O)cc3s2)cc1)c1ccc([N+](=O)[O-])c(C(F)(F)F)c1` [ABFHA-01] reads 0.19 µM; that for `Nc1ccc(C(=O)Nc2ccc(-c3nc4ccc(O)cc4s3)cc2)cc1C(F)(F)F` [ABFHA-02], 0.34 µM; that for `O=C(Nc1ccc(-c2nc3ccc(O)cc3s2)cc1)c1ccc(OCC(F)(F)F)cc1` [ABFHA-03], 0.1 µM.
As to `O=C(Nc1ccc(-c2nc3ccc(O)cc3s2)cc1)c1ccc(OCCC(F)(F)F)cc1` [ABFHA-04], the P50 result is recorded as “no effect”.
Turning to `O=C(Nc1ccc(-c2nc3ccc(O)cc3s2)cc1)c1ccc(OCCCC(F)(F)F)cc1` [ABFHA-05], the IC50 came out at 0.4 µM.
Still for that read-out and setting: the result for `O=C(Nc1ccc(-c2nc3ccc(O)cc3s2)c(O)c1)c1cc(OC(F)(F)F)ccc1O` [ABFHA-06] reads 0.39 µM.
Regarding `O=C(Nc1ccc(-c2nc3ccc(O)cc3s2)c(O)c1)c1ccc(F)cc1` [ABFHA-07], the IC50 was 0.1 µM.
As to `O=C(Nc1ccc(-c2nc3ccc(O)cc3s2)cc1)c1ccc(O)cc1C(F)(F)F` [ABFHA-08], the IC50 was greater than 1 µM.
In the case of `O=C(Nc1ccc(-c2nc3ccc(O)cc3s2)cc1)c1cc(OC(F)(F)F)ccc1O` [ABFHA-09], the IC50 was greater than 1 µM.
The same measure, in the same setting: the result for `O=C(Nc1ccc(-c2nc3ccc(O)cc3s2)c(C(F)(F)F)c1)c1ccc(O)cc1` [ABFHA-10] reads greater than 1 µM.
Still for that read-out and setting: to `O=C(Nc1ccc(-c2nc3ccc(O)cc3s2)cc1)c1ccc(F)c([N+](=O)[O-])c1` [ABFHA-11] belongs 0.31 µM.
`COc1ccc2nc(-c3ccc(NC(=O)c4ccccc4C(F)(F)F)cc3)sc2c1` [ABFMA-01]: the P50 result is “no effect”.
On to `COc1ccc2nc(-c3ccc(NC(=O)c4cccc(C(F)(F)F)c4)cc3)sc2c1` [ABFMA-02], for which the P50 entry is given as “no effect”.
Take `COc1ccc2nc(-c3ccc(NC(=O)c4ccc(C(F)(F)F)cc4)cc3)sc2c1` [ABFMA-03]: the P50 result was “no effect”.
As for `COc1ccc(C(=O)Nc2ccc(-c3nc4ccc(OC)cc4s3)cc2OC)c(C(F)(F)F)c1` [ABFMA-10], the P50 result was “no effect”.
Turning to `COc1ccc2nc(-c3ccc(NC(=O)c4ccc([N+](=O)[O-])c(C(F)(F)F)c4)cc3)sc2c1` [ABFMA-12], the IC50 was 0.17 µM.
As to `COc1ccc2nc(-c3ccc(NC(=O)c4ccc(OCCCC(F)(F)F)cc4)cc3)sc2c1` [ABFMA-13], the P50 entry was “no effect”.
In the case of `COc1ccc2nc(-c3ccc(NC(=O)c4ccc(N)c(C(F)(F)F)c4)cc3)sc2c1` [ABFMA-15], the IC50 came to 0.43 µM.
On to `COc1ccc2nc(-c3ccc(NC(=O)c4ccc(N)cc4C(F)(F)F)cc3)sc2c1` [ABFMA-16], for which the P50 entry is reported as “no effect”.
Turning to `COc1ccc2nc(-c3ccc(NC(=O)c4ccc(N(C)C)cc4C(F)(F)F)cc3)sc2c1` [ABFMA-18], the P50 result is reported as “no effect”.
On to `COc1ccc2nc(-c3ccc(NC(=O)c4ccc(OCC(F)(F)F)cc4)cc3)sc2c1` [ABFMA-19], for which the P50 entry is recorded as “no effect”.
On to `Nc1ccccc1C(=O)Nc1ccc(-c2nc3ccc(O)cc3s2)cc1` [ABHA-01], for which the IC50 was 0.9 µM.
The same measure, in the same setting: the result for `Nc1cccc(C(=O)Nc2ccc(-c3nc4ccc(O)cc4s3)cc2)c1` [ABHA-02] reads 0.56 µM; that for `Nc1ccc(C(=O)Nc2ccc(-c3nc4ccc(O)cc4s3)cc2)cc1` [ABHA-03], 0.45 µM.
With `COc1cc(NC(=O)c2ccccc2N(C)C)ccc1-c1nc2ccc(O)cc2s1` [ABHA-04], the P50 entry is listed as “no effect”.
`COc1ccc2nc(-c3ccc(NC(=O)c4ccccc4N)cc3)sc2c1` [ABMA-04]: the IC50 turned out to be 0.87 µM.
In the case of `COc1ccc2nc(-c3ccc(NC(=O)c4cccc(N)c4)cc3)sc2c1` [ABMA-05], the IC50 worked out at 0.85 µM.
On the same count and under the same terms, the result for `COc1ccc2nc(-c3ccc(NC(=O)c4ccc(N)cc4)cc3)sc2c1` [ABMA-06] reads 0.37 µM; that for `COc1ccc2nc(-c3ccc(NC(=O)c4ccccc4N(C)C)cc3)sc2c1` [ABMA-07], 1.35 µM.
With `COc1ccc2nc(-c3ccc(NC(=O)c4cccc(N(C)C)c4)cc3)sc2c1` [ABMA-08], the IC50 was roughly 1.2 µM.
Regarding `COc1ccc2nc(-c3ccc(NC(=O)c4ccc(N(C)C)cc4)cc3)sc2c1` [ABMA-09], the IC50 is 0.17 µM.
On to `COc1ccc2nc(-c3ccc(NC(=O)c4ccc(OC(C)=O)cc4)cc3)sc2c1` [ABMA-10], for which the IC50 was found to be 0.31 µM.
Still for that read-out and setting: the result for `COc1ccc2nc(-c3ccc(NC(=O)c4ccc(O)cc4)cc3)sc2c1` [ABMA-11] reads 0.43 µM; that for `COc1ccc2nc(-c3ccc(NC(=O)c4ccc(O)c([N+](=O)[O-])c4)cc3)sc2c1` [ABMA-13], 0.31 µM.
Regarding `COc1ccc2nc(-c3ccc(NC(=O)c4ccc(F)cc4)cc3)sc2c1` [ABMFMA-01], the P50 result is “no effect”.
For `COc1ccc2nc(-c3ccc(NC(=O)c4ccc(F)nc4)cc3)sc2c1` [ABMFMA-02], the IC50 is 0.89 µM.
On to `COc1ccc2nc(-c3ccc(NC(=O)c4ccc(Cl)nc4)cc3)sc2c1` [ABMFMA-03], for which the IC50 was 0.34 µM.
In the case of `COc1ccc2nc(-c3ccc(NC(=O)c4ccc(F)c([N+](=O)[O-])c4)cc3)sc2c1` [ABMFMA-05], the IC50 was found to be 0.2 µM.
With `COc1ccc2nc(-c3ccc(NC(=O)c4ccc(OCCF)cc4)cc3)sc2c1` [ABMFMA-06], the P50 entry is recorded as “no effect”.
As for `COc1ccc2nc(-c3ccc(NC(=O)c4ccc(Br)c([N+](=O)[O-])c4)cc3)sc2c1` [ABMFMA-08], the IC50 is greater than 1 µM.
On the same count and under the same terms, the result for `COc1ccc2nc(-c3ccc(NC(=O)c4ccc(I)c([N+](=O)[O-])c4)cc3)sc2c1` [ABMFMA-09] reads 0.21 µM.
With `CN(C)c1ccc(C(=O)Nc2ccc(-c3cn4cccnc4n3)cc2)cc1` [AIPM-01], the P50 result is recorded as “no effect”.
Turning to `CN(C)c1ccc(C(=O)Nc2ccc(-c3cn4ccccc4n3)cc2)cc1` [AIPN-01], the IC50 is greater than 1 µM.
Take `Cc1ccc2nc(-c3ccc(NC(=O)c4ccc(N(C)C)cc4)cc3)cn2c1` [AIPN-02]: the IC50 turned out to be 0.31 µM.
For the compound `Cc1ccc2nc(-c3ccc(NC(=O)c4ccncc4)cc3)cn2c1` [AIPN-03], the P50 entry is listed as “no effect”.

Source of the values: patent US8895313B2, “Ligands for aggregated tau molecules” (Wista Laboratories Ltd., priority 2008, dated 2014).
